{
  "source": "patent US7678776B2",
  "about": "“Inclusion complexes of butylphthalide with cyclodextrin or its derivatives, a process for their preparation and the use thereof” (Shijiazhuang Pharma. Group Zhongqi Pharmaceutical …, priority 2002, dated 2010)",
  "system": "marginal ear vein of a rabbit",
  "test": "vascular irritation assay",
  "assay_type": "in vivo",
  "conditions": "control group, administered into the ear vein for 3 days",
  "procedure": "The vascular irritation assay using inclusion complex of butylphthalide with hydroxypropyl-β-cyclodextrin is provided as follows:\nEight rabbits were divided into two groups, namely, test group and control group. For the test group, 2.45 g/kg of the inclusion complex together with 40 ml of 5% glucose were instilled via the marginal ear vein of a rabbit at the rate of 1.5 ml/min. The administration was once per day and lasted for 3 days. […] The administration lasted for 3 days.",
  "data": [
    {"smiles": "CC(=O)O", "note": "[10% acetic acid, acetic acid]", "values": [
      {"measurement": "vascular irritation (topical findings)", "value": "topical hyperaemia, thickening, and exudation"}
    ]}
  ]
}
